Test results from BindingDB's records for doi:10.1016/j.bmcl.2013.06.023 (Northwest Agriculture & Forestry University, 2013).

How the values were obtained:
[1] = target: T1, G protein-activated inward rectifier potassium channel 1 (Homo sapiens, UniProt P48549); assay: Inhibition of GIRK1/2 (unknown origin)
T1 sequence (P48549 whole entry): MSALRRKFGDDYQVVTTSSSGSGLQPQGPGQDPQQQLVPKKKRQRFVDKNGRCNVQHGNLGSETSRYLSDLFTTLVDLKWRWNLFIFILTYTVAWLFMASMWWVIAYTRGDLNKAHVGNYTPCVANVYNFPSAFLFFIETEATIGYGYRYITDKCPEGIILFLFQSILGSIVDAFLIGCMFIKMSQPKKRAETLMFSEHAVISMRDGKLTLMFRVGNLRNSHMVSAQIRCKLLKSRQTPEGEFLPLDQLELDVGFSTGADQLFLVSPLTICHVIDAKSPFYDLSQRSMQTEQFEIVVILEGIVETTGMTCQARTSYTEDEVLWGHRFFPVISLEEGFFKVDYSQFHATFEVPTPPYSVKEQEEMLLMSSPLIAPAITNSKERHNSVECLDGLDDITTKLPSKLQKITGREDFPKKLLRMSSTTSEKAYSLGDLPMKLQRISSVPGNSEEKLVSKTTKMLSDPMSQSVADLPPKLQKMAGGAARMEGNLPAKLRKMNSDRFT

[2] = target: T2, G protein-activated inward rectifier potassium channel 4 (Homo sapiens, UniProt P48544); assay: Inhibition of GIRK1/4 (unknown origin)
T2 sequence (P48544 whole entry): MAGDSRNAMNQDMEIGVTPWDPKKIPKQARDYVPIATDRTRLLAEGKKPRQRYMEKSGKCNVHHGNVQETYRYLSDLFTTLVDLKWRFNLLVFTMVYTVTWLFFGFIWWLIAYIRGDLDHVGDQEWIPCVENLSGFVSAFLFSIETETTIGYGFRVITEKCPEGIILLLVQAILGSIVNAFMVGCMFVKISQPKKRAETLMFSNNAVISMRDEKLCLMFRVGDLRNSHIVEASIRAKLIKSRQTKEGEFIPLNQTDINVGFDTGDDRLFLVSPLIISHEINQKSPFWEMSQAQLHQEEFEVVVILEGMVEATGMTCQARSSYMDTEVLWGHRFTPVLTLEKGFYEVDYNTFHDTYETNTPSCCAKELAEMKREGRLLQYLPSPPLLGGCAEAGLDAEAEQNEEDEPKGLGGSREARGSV

Row | IC50 [1] [µM] | IC50 [2] [µM] | SMILES
1 | 30 | 30 | O=C(Nc1ccc(F)c(F)c1)Nc1cc(C2CCC2)nn1-c1ccccc1
2 | 30 | 30 | O=C(Nc1ccc(F)c(F)c1)Nc1cc(-c2ccccc2)nn1-c1ccccc1
3 | 30 | 30 | O=C(Nc1ccc(F)c(F)c1)Nc1cc(C(F)(F)F)nn1-c1ccccc1
